Data reported in patent US20090069623A1, “METHODS AND COMPOSITIONS FOR TREATMENT OR PREVENTION OF RADIATION-INDUCED FIBROSIS” (Virginia Commonwealth University Intellectual Property …, priority 2007, published 2009).

Columns and labels:
Assay type in all cases: cell-based, human
CTGF, fibronectin [1] = experiment: Western blot of HFL-1 cells treated with TGF-β1 and simvastatin; conditions: TGF-β1 plus simvastatin, three days, FIG. 7B
Procedure: (§1) Cell Culture and Treatment. Normal human fetal lung fibroblasts (HFL-1) were purchased from the American Type Culture Collection (ATCC Number: CCL-153) and cultured in Ham's F12K medium (American Type Culture Collection) supplemented with 2 mM L-glutamine adjusted to contain 1.5 g/L sodium bicarbonate and 10% fetal bovine serum. Cells were maintained in humidified 5% CO2 at 37° C. Human dermal fibroblasts (HDF), derived from the dermis of normal human adult skin, were purchased from Invitrogen, Inc. and cultured in Medium-106 (Invitrogen, Inc., Catalogue No. M-106-500) containing LSGS Kit (Invitrogen, Inc., Catalogue No. S-003-K) prior to use. […]
(§2) Harvesting Culture Media and Cell Lystates. For analysis of extracellular CTGF, fibronectin, and α-tubulin, cell culture media was collected, centrifuged to remove cellular debris, aliquoted, and frozen at −70° C. until ready for use. […]
(§3) Western blot analysis of HFL-1 whole cell proteins. […] After washing the blot, the antibodies were detected by the enhanced chemiluminescence method (PerkinElmer Life Sciences Inc.).
(§4) The separated proteins were then transferred to nitrocellulose, and Western immunoblotting was performed with antibodies specific for CTGF, fibronectin, and α-tubulin. […] As a control for protein loading, α-tubulin expression in HFL-1 cells was also determined.

[2] = tested on: CTGF, fibronectin (FN), collagen type IV (Col IV) mRNA; experiment: RT-PCR of TGF-β1-induced mRNA expression in HDF cells treated with simvastatin; conditions: 10 ng/ml TGF-β1 for 20 hours, FIG. 10A
Procedure: Cell Culture and Treatment. Normal human fetal lung fibroblasts (HFL-1) were purchased from the American Type Culture Collection (ATCC Number: CCL-153) and cultured in Ham's F12K medium (American Type Culture Collection) supplemented with 2 mM L-glutamine adjusted to contain 1.5 g/L sodium bicarbonate and 10% fetal bovine serum. Cells were maintained in humidified 5% CO2 at 37° C. Human dermal fibroblasts (HDF), derived from the dermis of normal human adult skin, were purchased from Invitrogen, Inc. and cultured in Medium-106 (Invitrogen, Inc., Catalogue No. M-106-500) containing LSGS Kit (Invitrogen, Inc., Catalogue No. S-003-K) prior to use. After reaching 75-80% confluence, the medium was changed to serum free medium (SFM) for irradiation with different dose 1Gy, 2.5Gy, 5Gy, 7.5Gy and 10 Gy by using ^137Se. Alternatively, cells were treated with 5 ng/ml TGF-β1 (Sigma-Aldrich, Inc., Catalogue No. T7039) to stimulate CTGF production. The cells were then kept for 3 days in humidified 5% CO2 at 37° C. and subjected to Western immunoblot.^1 ^1What are the culture conditions (e.g., media) for M12 cells used in FIG. 3?
RT-PCR analysis of CTGF, COL-IV, FN and hβ2M. […]
The ability of statins to inhibit TGF-β1-mediated induction of CTGF, fibronectin, and collagen type IV was assessed in HDF cells. […]

[3] = tested on: CTGF, fibronectin (FN), collagen type IV (Col IV) mRNA; experiment: RT-PCR of mRNA expression in irradiated HFL-1 cells treated with simvastatin; conditions: simvastatin pretreatment 6 hours, 10 Gy, 20 hours, FIG. 8A
Procedure: For statin treatment experiments, cells were grown overnight in 35 mm plates (6-well plates were also used in some studies) to form a 75-80% confluent monolayer. The cells were then washed with PBS, and the media was changed to SFM (800 μL).
RT-PCR analysis of CTGF, COL-IV, FN and hβ2M. […] One microgram of purified total RNA was used for RT-PCR analysis using the ThermoScript RT-PCR System (Invitrogen, Inc.) according to the protocol of the manufacturer. The sequences of the forward and reverse primers are as follows: CTGF forward primer (SEQ ID NO 1) 5′-[…]-3′, CTGF reverse primer (SEQ ID NO 2) 5′-[…]-3′; COL-IV forward primer (SEQ ID NO 3) 5′-[…]-3′, COL-IV reverse primer (SEQ ID NO 4) 5′-[…]-3′; FN forward primer (SEQ ID NO 5) 5′-[…]-3′, FN reverse primer (SEQ ID NO 6) 5′-[…]-3′; hβ2M forward primer (SEQ ID NO 7) 5′-[…]-3′; hβ2M reverse primer (SEQ ID NO 8) 5′-[…]-3′. The CTGF PCR product is 242 bp in length, the COL-IV PCR product is 138 bp, the FN PCR product is 203 bp, and hβ2M PCR product is 278 bp. For PCR amplification, 25 cycles were performed for the amplification of CTGF, COL-IV, FN and hβ2M (denaturation: 94° C., 45 sec; annealing: 55° C., 45 sec; polymerization: 72° C., 1 min). Amplified products were separated by electrophoresis on a 1.0% agarose gel, and DNA was visualized by ethidium bromide staining.

CTGF, fibronectin [4] = experiment: Western blot of HDF cells treated with TGF-β1 and simvastatin; conditions: 10 ng/ml TGF-β1 plus simvastatin, three days, FIG. 10B
Procedure: as §1, §2, §3, §4

Structure (SMILES): CCC(C)(C)C(=O)O[C@H]1C[C@@H](C)C=C2C=C[C@H](C)[C@H](CC[C@@H]3C[C@@H](O)CC(=O)O3)[C@H]21 [simvastatin, 2,2-dimethyl-butanoic acid(1S,3R,7S,8S,8aR)-1,2,3,7,8,8a-hexahydro-3,7-dimethyl-8-[2-[(2R,4R)-tetrahydro-4-hydroxy-6-oxo-2H-pyran-2-yl]ethyl]-1-naphthalenylester]
- fibronectin protein expression (CTGF, fibronectin [1]): decrease in protein expression or fibronectin
- CTGF, FN, and Col IV mRNA expression ([2]; 0.1 μM simvastatin): reduction in CTGF, FN, and Col IV mRNA expression
- CTGF, FN, and Col IV mRNA expression ([2]; increasing concentration of simvastatin): reduction in CTGF, FN, and Col IV mRNA expression became more pronounced
- expression of CTGF, FN, and Col-IV mRNA [3]: decrease in the expression of CTGF, FN, and Col-IV mRNA
- fibronectin protein expression (CTGF, fibronectin [4]): decrease in protein expression of fibronectin
